Test results taken from patent publication US12419873B2, “Use of JAK inhibitors in preparation of drugs for treating JAK kinase-related diseases” (ZHUHAI UNITED LABORATORIES CO., LTD., priority 2020, dated 2025).

Experiments:
JAK1 = JAK1 (Homo sapiens (Human), UniProt P23458); experiment: In vitro activity test of JAK1 kinase; assay type: biochemical
Procedure: (§1) Recombinant human JAK1, JAK2, JAK3, TyK2 protease, main instruments and reagents were provided by Eurofins in the UK
(§2) All compounds were prepared into a 100% DMSO solution and reached 50 times the final determined concentration. The test compound was diluted by 3 times the concentration gradient, and the final concentration was 10 μM to 0.001 μM, 9 concentrations in total, and the content of DMSO in the detection reaction was 2%. The working stock solution of the compound was added to a determination hole as the first component of the reaction, and then the remaining components were added according to the detailed scheme determination below.
(§3) Mg/ATP mixture was added to start the reaction. After incubation at room temperature for 40 minutes, 0.5% phosphoric acid was added to stop the reaction.

JAK3 = JAK3 (Homo sapiens (Human), UniProt P52333); experiment: In vitro activity test of JAK3 kinase; assay type: biochemical
JAK3, sequence (P52333 whole entry): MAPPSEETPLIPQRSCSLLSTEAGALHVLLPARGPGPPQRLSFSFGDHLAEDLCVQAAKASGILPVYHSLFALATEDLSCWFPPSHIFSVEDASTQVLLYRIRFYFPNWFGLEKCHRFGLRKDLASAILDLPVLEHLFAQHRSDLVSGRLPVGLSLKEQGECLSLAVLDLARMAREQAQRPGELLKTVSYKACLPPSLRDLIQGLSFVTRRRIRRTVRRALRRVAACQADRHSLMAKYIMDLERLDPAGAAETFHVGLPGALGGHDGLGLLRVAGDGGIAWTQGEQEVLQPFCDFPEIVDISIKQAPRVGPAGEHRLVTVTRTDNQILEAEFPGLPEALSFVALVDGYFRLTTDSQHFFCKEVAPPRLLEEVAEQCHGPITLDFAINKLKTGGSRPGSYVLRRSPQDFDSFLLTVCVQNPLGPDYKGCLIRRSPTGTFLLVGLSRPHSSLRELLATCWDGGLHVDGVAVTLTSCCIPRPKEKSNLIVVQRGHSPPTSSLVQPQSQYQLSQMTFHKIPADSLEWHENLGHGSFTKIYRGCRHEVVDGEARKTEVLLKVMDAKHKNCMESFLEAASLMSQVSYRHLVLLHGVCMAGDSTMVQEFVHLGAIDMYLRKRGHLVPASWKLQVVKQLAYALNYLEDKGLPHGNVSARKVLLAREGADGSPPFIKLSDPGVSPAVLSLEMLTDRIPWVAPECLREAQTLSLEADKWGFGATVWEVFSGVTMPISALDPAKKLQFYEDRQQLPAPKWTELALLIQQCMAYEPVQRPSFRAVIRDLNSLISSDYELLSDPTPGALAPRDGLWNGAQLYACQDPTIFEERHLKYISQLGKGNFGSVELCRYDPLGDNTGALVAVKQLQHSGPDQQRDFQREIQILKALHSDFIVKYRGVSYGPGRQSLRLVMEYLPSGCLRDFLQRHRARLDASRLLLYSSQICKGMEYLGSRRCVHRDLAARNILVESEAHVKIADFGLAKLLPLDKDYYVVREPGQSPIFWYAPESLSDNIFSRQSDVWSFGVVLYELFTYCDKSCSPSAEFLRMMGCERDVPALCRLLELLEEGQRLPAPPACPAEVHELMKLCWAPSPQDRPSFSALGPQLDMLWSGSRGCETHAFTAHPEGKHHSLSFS
Procedure: as §1, §2, §3

TYK2 = TYK2 (Homo sapiens (Human), UniProt P29597); experiment: In vitro activity test of TYK2 kinase; assay type: biochemical
TYK2, sequence (P29597 whole entry): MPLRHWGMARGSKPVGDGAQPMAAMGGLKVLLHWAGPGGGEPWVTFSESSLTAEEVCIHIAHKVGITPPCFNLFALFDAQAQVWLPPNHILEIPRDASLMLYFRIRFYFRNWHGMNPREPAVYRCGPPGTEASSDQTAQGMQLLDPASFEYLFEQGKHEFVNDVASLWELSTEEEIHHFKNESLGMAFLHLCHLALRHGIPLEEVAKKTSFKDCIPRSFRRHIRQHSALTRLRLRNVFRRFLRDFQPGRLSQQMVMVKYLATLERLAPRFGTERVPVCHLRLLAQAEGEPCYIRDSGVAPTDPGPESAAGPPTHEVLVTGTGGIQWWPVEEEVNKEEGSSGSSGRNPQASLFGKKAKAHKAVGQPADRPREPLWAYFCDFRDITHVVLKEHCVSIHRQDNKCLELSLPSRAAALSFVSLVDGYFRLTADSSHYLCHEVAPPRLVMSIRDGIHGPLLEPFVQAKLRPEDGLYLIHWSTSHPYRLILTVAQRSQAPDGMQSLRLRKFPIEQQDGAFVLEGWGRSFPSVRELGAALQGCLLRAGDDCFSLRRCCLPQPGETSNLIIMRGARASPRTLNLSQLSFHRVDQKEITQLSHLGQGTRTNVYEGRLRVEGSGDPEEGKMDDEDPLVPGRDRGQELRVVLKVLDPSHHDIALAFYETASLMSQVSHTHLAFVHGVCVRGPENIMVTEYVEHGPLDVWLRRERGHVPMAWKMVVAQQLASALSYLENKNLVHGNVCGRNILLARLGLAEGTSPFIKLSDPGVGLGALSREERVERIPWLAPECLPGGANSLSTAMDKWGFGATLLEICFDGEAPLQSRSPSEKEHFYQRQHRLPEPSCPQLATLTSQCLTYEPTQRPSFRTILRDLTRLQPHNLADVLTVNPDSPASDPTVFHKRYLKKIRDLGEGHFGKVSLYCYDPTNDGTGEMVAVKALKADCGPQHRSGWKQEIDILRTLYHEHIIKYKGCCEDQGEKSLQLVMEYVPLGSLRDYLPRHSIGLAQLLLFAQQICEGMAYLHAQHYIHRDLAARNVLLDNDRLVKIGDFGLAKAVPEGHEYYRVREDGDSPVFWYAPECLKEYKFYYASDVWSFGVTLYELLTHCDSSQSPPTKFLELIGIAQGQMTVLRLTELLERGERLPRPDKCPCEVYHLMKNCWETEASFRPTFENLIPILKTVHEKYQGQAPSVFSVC
Procedure: as §1, §2, §3

JAK2 = JAK2 (Homo sapiens (Human), UniProt O60674); experiment: In vitro activity test of JAK2 kinase; conditions: read-out: JAK2 (IC50)
JAK2, sequence (O60674 whole entry): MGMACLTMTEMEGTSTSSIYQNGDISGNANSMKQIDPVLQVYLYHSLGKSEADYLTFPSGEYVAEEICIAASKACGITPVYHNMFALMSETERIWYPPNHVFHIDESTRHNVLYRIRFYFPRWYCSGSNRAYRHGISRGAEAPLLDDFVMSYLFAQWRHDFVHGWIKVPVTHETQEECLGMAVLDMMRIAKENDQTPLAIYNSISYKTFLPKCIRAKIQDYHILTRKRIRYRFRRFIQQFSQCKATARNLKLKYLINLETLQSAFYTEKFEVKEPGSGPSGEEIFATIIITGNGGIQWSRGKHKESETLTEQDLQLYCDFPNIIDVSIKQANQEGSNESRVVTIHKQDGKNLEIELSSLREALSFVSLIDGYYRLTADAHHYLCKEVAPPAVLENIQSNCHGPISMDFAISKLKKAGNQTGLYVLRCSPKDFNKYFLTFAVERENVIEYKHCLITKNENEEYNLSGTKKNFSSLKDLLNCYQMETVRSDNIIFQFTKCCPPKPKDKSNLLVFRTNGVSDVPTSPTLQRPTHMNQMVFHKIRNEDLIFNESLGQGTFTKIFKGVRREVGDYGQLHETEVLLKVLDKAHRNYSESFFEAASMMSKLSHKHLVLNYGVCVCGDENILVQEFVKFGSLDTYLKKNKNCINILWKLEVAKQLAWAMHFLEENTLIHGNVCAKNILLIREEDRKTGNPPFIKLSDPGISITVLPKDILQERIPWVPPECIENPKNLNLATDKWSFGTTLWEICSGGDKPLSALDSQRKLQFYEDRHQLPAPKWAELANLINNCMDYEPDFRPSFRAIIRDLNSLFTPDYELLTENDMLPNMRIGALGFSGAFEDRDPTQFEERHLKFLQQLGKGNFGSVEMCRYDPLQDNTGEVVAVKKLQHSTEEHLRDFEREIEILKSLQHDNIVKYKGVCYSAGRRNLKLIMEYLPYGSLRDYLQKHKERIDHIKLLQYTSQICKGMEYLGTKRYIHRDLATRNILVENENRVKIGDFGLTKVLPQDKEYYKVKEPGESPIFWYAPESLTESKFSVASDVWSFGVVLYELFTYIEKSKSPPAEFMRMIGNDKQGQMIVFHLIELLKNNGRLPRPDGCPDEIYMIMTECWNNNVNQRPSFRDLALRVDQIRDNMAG

JAK1, sequence (P23458 whole entry): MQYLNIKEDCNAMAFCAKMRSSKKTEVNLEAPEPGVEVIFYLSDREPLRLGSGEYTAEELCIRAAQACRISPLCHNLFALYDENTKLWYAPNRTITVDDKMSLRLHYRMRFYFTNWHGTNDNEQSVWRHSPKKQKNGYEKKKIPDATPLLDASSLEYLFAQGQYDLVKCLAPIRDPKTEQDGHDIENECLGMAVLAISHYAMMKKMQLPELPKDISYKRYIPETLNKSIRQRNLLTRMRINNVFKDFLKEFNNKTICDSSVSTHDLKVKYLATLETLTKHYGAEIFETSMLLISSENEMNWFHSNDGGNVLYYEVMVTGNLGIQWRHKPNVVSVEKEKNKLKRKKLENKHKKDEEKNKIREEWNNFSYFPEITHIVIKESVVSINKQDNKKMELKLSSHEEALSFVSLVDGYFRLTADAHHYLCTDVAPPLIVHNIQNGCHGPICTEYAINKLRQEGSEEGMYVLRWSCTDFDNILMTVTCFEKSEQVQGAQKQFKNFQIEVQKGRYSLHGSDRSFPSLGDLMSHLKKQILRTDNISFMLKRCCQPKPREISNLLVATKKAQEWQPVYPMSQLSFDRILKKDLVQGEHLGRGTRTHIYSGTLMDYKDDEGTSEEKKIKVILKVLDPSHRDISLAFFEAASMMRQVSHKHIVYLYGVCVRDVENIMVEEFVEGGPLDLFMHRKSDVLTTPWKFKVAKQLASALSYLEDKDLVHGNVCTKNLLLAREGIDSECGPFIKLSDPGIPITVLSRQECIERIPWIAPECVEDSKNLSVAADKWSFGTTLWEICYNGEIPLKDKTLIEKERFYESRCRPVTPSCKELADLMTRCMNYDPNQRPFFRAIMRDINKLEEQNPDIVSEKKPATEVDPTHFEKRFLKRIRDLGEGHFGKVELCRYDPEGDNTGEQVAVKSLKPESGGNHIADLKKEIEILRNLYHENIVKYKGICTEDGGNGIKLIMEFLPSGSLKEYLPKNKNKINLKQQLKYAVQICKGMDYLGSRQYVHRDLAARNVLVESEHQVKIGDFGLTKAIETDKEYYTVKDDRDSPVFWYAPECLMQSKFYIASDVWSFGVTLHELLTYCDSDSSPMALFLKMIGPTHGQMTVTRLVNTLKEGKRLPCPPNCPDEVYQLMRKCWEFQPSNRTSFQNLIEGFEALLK

Structure (SMILES) | IC50 (JAK1) [nM] | IC50 (JAK3) [nM] | IC50 (TYK2) [nM] | IC50 (JAK2) [nM]
N#CCCN1CC2(CCC(c3cccc4nc(NC(=O)C5CC5)nn34)CC2)C1 [Compound 1-17] | 65 | > 10000 | 371 | 
O=C(Nc1nc2cccc([C@H]3CCC4(C3)CN(C(=O)[C@@H]3CC3(F)F)C4)n2n1)C1CC1 (single isomer, unassigned) [Compound 7-7] | 63 | > 10000 | 830 | 
N#CCN1CC2(CCC(c3cccc4nc(NC(=O)[C@@H]5CC5(F)F)nn34)CC2)C1 [Compound 9-6] | 432 | > 10000 | 1390 | 1170
O=C(Nc1nc2cccc(C3CCC4(CC3)CCN(C(=O)C3CC3(F)F)C4)n2n1)C1CC1 (single isomer, unassigned) [Compound 5-7] | 31 | 5760 | 67 | 324
O=C(Nc1nc2cccc([C@@H]3CCC4(C3)CN(C(=O)[C@@H]3CC3(F)F)C4)n2n1)C1CC1 [Compound 7-8] | 176 | > 10000 | 404 | 
